In one data set the test system is holo-APP or BACE-1. Put plainly: brain holo-APP and BACE-1 levels in EFAD mice after miR-195-5p over-expression. The data set is classed as in vivo. Conditions: EFAD mouse brains. The procedure:
Stereotaxic injection and behavior studies. Eight to nine weeks old male and female ApoE3^+/+ and ApoE4^+/+ KI mice without 5×FAD background (N=19-23/group), or with 5×FAD background (N=15-17/group) were placed in the stereotaxic apparatus with AAV2 or scramble virus administered into the dorsal CA1 regions of bilateral hippocampal brain regions using pressure injection (Labonte B et al., Nat Med 2017, and Passini M A et al., The Journal of neuroscience 2006). Injection volumes (0.5-2.0 μl) were delivered over 10 min to avoid tissue damage. […]
(§1) Brain and neuronal sample preparation and biochemical analysis. […] Levels of Aβ42, Aβ40, pTau, Tau and ApoE were determined using high-sensitive ELISA kits. […]
(§2) Statistical analysis. […] Levels of miR-195-5p and miR-374 were normalized to U6 and RNU6B (internal controls) while synj1 mRNA normalized to GAPDH and 18s, and then expressed as Log2fold of changes when compared to controls. Levels of synj1, dyn1, pTau, Tau, and holoAPP were normalized to β-actin levels and expressed as a percentage of the control. Absolute Aβ42, Aβ40, pTau, Tau, and ApoE concentrations were quantitatively determined by ELISA and expressed as a percentage of the control. […] Pearson correlation coefficients were calculated to determine the linear relationship between the two variables. […]

The subject of another data set is BV2 cells. Briefly: LPS-induced pro-inflammatory cytokine release (IL-6, TNFα) in BV2 microglia with miR-195-5p over-expression. In kind it is cell-based. The procedure:
For example, LPS (at 0.2 μg/ml) treatment for overnight in BV2 cells leads to increased expression of pdcd4 and smad7 (FIG. 13A) and reduced expression of il10ra (FIG. 13C). […] Over-expression of miR-195-5p also attenuates LPS-induced pro-inflammatory cytokine release (IL-6 and TNFα; FIG. 13B). […] For these experiments, purified exosomes were derived from human APOE3/3 and 4/4 iPSC-derived astrocytes w/wo miR-195 over-expression detected by an exosome marker, ALIX. Fluorescence labeled exosomes were taken up by IBA1+ microglia cells.
Over-expression of miR-195-5p in microglia inhibits LPS-induced proinflammatory responses and augments anti-inflammatory responses. […] However, over-expression of miR-195-5p reduces expression levels of pdcd4 and smad7 and increases il10a expression in the presence of LPS. Over-expression of miR-195-5p also attenuates LPS-induced pro-inflammatory cytokine release (IL-6 and TNFα; FIG. 17B).

For another data set, the system named is pTau. Put plainly: pTau levels in iPSC-derived brain cell culture (AT8 staining, ELISA). In kind it is cell-based, human. The conditions noted are these: iPSC-derived neuron and astrocyte co-culture. Here is the method: Mouse Neuronal and human iPSC culture. Primary cortical neurons were cultured (Zhu L et al., Proc Natl Acad Sci USA 2015, and Zhu L et al., J Biol Chem 2013) before being fixed and stained for confocal microscopy analysis (Zeiss LSM) (Berg I et al., Nat Protoc 2010). In some conditions, bovine serum albumin (BSA) or receptor-associated protein (RAP) was included in the cultured media (N=3/group). Alternatively, cultured neurons were transfected with adeno-associated virus 2 (AAV2)-containing miR-195-5p or miR-374 or scramble controls for 5 days before subjected to analysis. The ApoE4^+/+ and ApoE3^+/+ iPSCs were differentiated into neural progenitor cells (NPCs) by dual SMAD inhibition followed by neural rosette selection and forebrain-specific patterning by 20 ng/ml FGF2 exposure (Bowles K R et al., PloS one 2019, and Tcw J et al., Stem cell reports 2017). […]
as §1
For orientation: An ELISA detects its analyte on a solid surface through an enzyme-linked reagent.

The next data set deals with synj1. Put plainly: brain synj1 mRNA and protein levels in ApoE KI mice after miR-195 over-expression. In kind it is in vivo, mouse. Here is the method:
Stereotaxic injection and behavior studies. Eight to nine weeks old male and female ApoE3^+/+ and ApoE4^+/+ KI mice without 5×FAD background (N=19-23/group), or with 5×FAD background (N=15-17/group) were placed in the stereotaxic apparatus with AAV2 or scramble virus administered into the dorsal CA1 regions of bilateral hippocampal brain regions using pressure injection (Labonte B et al., Nat Med 2017, and Passini M A et al., The Journal of neuroscience 2006). Injection volumes (0.5-2.0 μl) were delivered over 10 min to avoid tissue damage. Six to nine months after viral delivery, mice were tested with the NOR task (Zhu L et al., Proc Natl Acad Sci USA 2015, Elder G A et al., J Neurotrauma 2012, and Howlett D R et al., Brain Res 2004). Mice were randomized for genotype and sex, and blinded throughout the behavior data collection and analysis, surgical manipulations, and sample collection.
Brain and neuronal sample preparation and biochemical analysis. Snap-frozen mouse hemi-brains or cultured neurons were harvested in lysis buffer (Lane R F et al., The Journal of neuroscience 2010) and processed via step-wise solubilization (Lane R F et al., The Journal of neuroscience 2010, and Kawarabayashi T et al. The Journal of neuroscience 2001) followed by SDS-PAGE to determine levels of synj1, dyn1, holoAPP, and CTFs. Levels of Aβ42, Aβ40, pTau, Tau and ApoE were determined using high-sensitive ELISA kits. Some tissue was used for miRNA and RNA extraction followed by qPCR and RNA-seq analysis. […]
as §2

The text below walks through data of patent US20240301408A1, “MICRORNA 195 COMPOSITIONS AND METHODS FOR TREATING COGNITIVE IMPAIRMENT” (UNITED STATES GOVERNMENT AS REPRESENTED BY THE DEPARTMENT …, priority 2021, published 2024).

Regarding “UAGCAGCACAGAAAUAUUGGC (chemistry not given here) [miR-195-5p, over-expressed via AAV2-containing miR-195-5p from ABM Inc]”, the “holo-APP or BACE-1 levels” value with holo-APP or BACE-1 was “no significant changes”. For the same sequence, the “LPS-induced pro-inflammatory cytokine release (IL-6 and TNFα)” value with BV2 cells is given as “attenuates”. In addition, the “pTau levels (fluorescent staining and ELISA)” value with pTau is given as “reduced”. For the same sequence, the “synj1 mRNA and protein levels” value in the data set with synj1 (ApoE3+/+ mouse brains) is listed as “Trends of reduction”. Further, the “synj1 mRNA” value in the data set on synj1 (ApoE4+/+ mouse brains, scramble controls 0.52) is reported as −1.29 Log 2FC. Also, the synj1 protein in the data set with synj1 (ApoE4+/+ mouse brains, scramble controls 77.7) is given as 56.4 % of control.
